melting point	Structure (SMILES)
186 to 188 °C	CCOCc1nc2c(N)nc3ccc(OCc4ccccc4)cc3c2n1CCCCN(C(N)=O)c1ccccc1
182 to 183 °C	CN1CCC(C(=O)Nc2ccc(CN(C)C3CCOCC3)cc2)=Cc2cc(-c3ccc(OC(F)(F)F)cc3)ccc21
188 to 190 °C	CS(=O)(=O)NCc1cccc(-c2nc(=O)c3ccccc3s2)n1
229 to 233 °C	COC(=O)c1cc2cc(OC)c(OC)cc2c(-c2ccnc(N3C(=O)CCc4ccccc43)c2)c1C(=O)OC
90 °C	COc1ccc(C(=O)c2cc(F)cc(F)c2)cc1
178 to 182 °C	CC(C)(C)OC(=O)N1CCC2(CC1)CC(c1ccc(CNS(C)(=O)=O)c(F)c1)=NO2
154 to 156 °C	CC(C)c1nc(-c2ncn3c2C(C)(C)N(C(=O)N2CCCC2)c2cc(F)ccc2-3)no1
284 to 285 °C	COc1cc2c(N)nc(N3CCN(c4nc5cccccc-5n4)CC3)nc2c(OC)c1OC
65 to 67 °C	CCN(CC)CCC(=O)O
147 °C	O=C1NCC(CCOC(=O)c2ccccc2)(c2ccc(F)c(F)c2)O1 (stereo unspecified)
145 to 146 °C	FC(F)(F)c1cccc(CNc2ncnc3ccccc23)c1
220 to 222 °C	Cn1c2ccccc2c(=O)c2c(-c3cccc(O)c3)c(Cl)cc(Cl)c21
170 to 174 °C	O=C(O)c1cc2cc(Cl)ccc2nc1NC(Cc1c[nH]c2cc(F)ccc12)C(=O)O (stereo unspecified)
116 to 118 °C	COc1ccc(-c2cn3c(n2)CCC3)cc1
160 to 161 °C	CONC(C(C)=O)c1cc(-n2c(=O)cc(C(F)(F)F)n(C)c2=O)ccc1Cl (stereo unspecified)
235 to 240 °C	c1ccc(C(c2ccccc2)(c2ccns2)n2cncn2)cc1
68 to 70 °C	CCCC(Oc1ccccc1)C(=O)NCCO[N+](=O)[O-] (stereo unspecified)
166 to 168 °C	Cc1nc2ccccc2n1-c1ccc(C#N)cc1
244 to 246 °C	O=C1CCCc2cc(O)c(Cl)c(Cl)c21
223 to 225 °C	Cc1nc(-n2cc(C(=O)Nc3ccccc3)ccc2=O)sc1C(=O)NCc1ccccc1
> 260 °C	O=C(O)c1ccc(-c2ccc(NS(=O)(=O)c3cccnc3)cc2)[nH]c1=O
132 °C	CCOC(=O)c1c(N2CCN(C(=O)c3cccs3)CC2)c2cnccc2n(Cc2ccc(F)cc2)c1=O
204 °C	NC(=O)c1ccccc1C(=O)N(C[C@H]1CN(c2ccc(N3CCOCC3=O)cc2)C(=O)O1)C[C@H]1CN(c2ccc(N3CCOCC3=O)cc2)C(=O)O1
113 to 115 °C	CCC(=O)NCCc1cc(-c2cccc(C(=O)OC)c2)cc2ccc(OC)cc12
180 to 181 °C	CCCCCS(=O)(=O)NC(=O)/C=C/c1ccc(OCCC(C)=O)cc1Oc1ncc(C(F)(F)F)cc1Cl

melting point	Structure (SMILES)
293 to 298 °C	CCCNC1=NS(=O)(=O)c2c(sc(C)c2C#N)N1
189 to 194 °C	CC(=O)C(=Cc1cc(O)c(O)c([N+](=O)[O-])c1)c1ccc(C)cc1
135 °C	O=[N+]([O-])c1cc(O)c(OCCOCCO)cc1[N+](=O)[O-]
198 to 200 °C	COc1ccc2[nH]c(-c3ccccc3N)cc2c1
168 to 169 °C	CCOC(=O)c1cn(C2CC2)c2c(F)c(N3CCOC(CN(C)C)C3)c(F)cc2c1=O (stereo unspecified)
120 to 122 °C	CC(=O)NCC1CN(Cc2ccc(F)cc2)CCO1 (stereo unspecified)
55 to 56 °C	COc1ccc(C(=O)OC2CCN(Cc3ccccc3)CC2)cc1
71.5 to 72 °C	CC(C)OC(=O)C=CC(=O)c1ccc(Oc2ccccc2)cc1
204 to 205 °C	Cc1ccc2c(c1)NC(=O)CO2
66 to 70 °C	CC1(c2ccc(C#N)cc2)C(=O)N(Cc2ccc(F)cc2)Cc2cncn21 (stereo unspecified)
238 to 239 °C	O=C(O)c1cnc2ccoc2c1
118 to 120 °C	COCC(=O)N(c1c(C)cccc1C)C1CCOC1=O (stereo unspecified)
88 to 90.5 °C	C=C(Cl)CSC(=S)Nc1ccc(Cl)cc1C
158 to 160 °C	O=C(O)CCC(=O)CCC(=O)Nc1ccc(Cc2ccc(NC(=O)CCC(=O)CCC(=O)O)cc2)cc1
104 to 106 °C	Nc1cccc(CN2CCN(C(c3ccccc3)c3ccccc3)CC2)c1
187 to 189 °C	FC(F)(F)c1ccc2[nH]c(-c3csc(Cc4c(Cl)cccc4Cl)n3)nc2c1
228 to 230 °C	N#Cc1cccc(CNc2cc(C(N)=O)c([N+](=O)[O-])cc2[N+](=O)[O-])c1
107 to 109 °C	O=C(Cl)[C@@H]1CCCN1S(=O)(=O)c1ccc2ccccc2c1
84 °C	COCC(=O)N(C)c1ccc(NC(=O)[C@H]2C[C@@H](O)CN2C(=O)Nc2ccc(Cl)cc2)cc1
150 to 152 °C	CC(C)(C)OC(=O)n1cc(C(=O)c2ccn3c2CSC3c2cccnc2)c2ccccc21 (stereo unspecified)
210 to 212 °C	NC(=O)C(N)N=Nc1ccccc1C(=O)c1ccccn1 (stereo unspecified)
152 to 154 °C	CCCCc1nc(C(C)(O)CC)c(C(=O)O)n1Cc1ccc(-c2ccccc2-c2nnn[nH]2)cc1 (stereo unspecified)
249 to 253 °C	O=C(Nc1ncc(Br)cn1)c1ccccc1SSc1ccccc1C(=O)Nc1ncc(Br)cn1
135 to 137 °C	CON1C(C)(C)CC(OC(=O)CCc2cc(-n3nc4ccccc4n3)c(O)c(C(C)(C)C)c2)CC1(C)C
227 to 229 °C	CCCc1nn(C)c2c(=O)[nH]c(-c3cc4cccc(OCC)c4o3)nc12

melting point	Structure (SMILES)
90 to 91 °C	BrCCCCCCCCn1nnc(-c2ccccc2)c1-c1ccccc1
125 to 128 °C	CCCCNc1nc(C)c(C(=O)c2ccc(Cl)c([N+](=O)[O-])c2)s1
180 to 182 °C	COc1ccccc1C(=O)NS(=O)(=O)c1ccc(N)cc1
156 to 158 °C	CCc1ccc(NC(=N)c2ccc(SC)cc2)cc1
260 °C	CC(=O)NCCCn1cc(-c2cc3nccnc3[nH]2)c2ccccc21
91 to 92 °C	CCCC(SCC(N)=O)c1ccc2c(c1)OCO2 (stereo unspecified)
156 to 158 °C	CCCc1ccnc2c(=O)[nH]c(-c3cc(N)ccc3OCC)nc12
259 to 262 °C	O=c1cc(-c2ccc(O)c(Cl)c2)oc2ncccc12
178 to 180 °C	COc1cc(C(=O)c2csc(-c3ccncc3)n2)cc(OC)c1OC
180 to 182 °C	OC1CCC(n2cnc3cc(Cl)c(Cl)cc32)C1O (stereo unspecified)
77 °C	C#CCn1cc(CO)cc1C(=O)OC
139 °C	CCON=C(CC)C1=C(OC(=O)c2ccccc2)CC(c2c(OC)cc(OC)cc2OC)CC1=O (stereo unspecified)
78 °C	CCOC(=O)C(C)Oc1ccc(Nc2ccc(C(F)(F)F)cc2N)cc1 (stereo unspecified)
188 to 189 °C	N=C(Nc1cc(NC(=O)/C=C/c2ccccc2C(F)(F)F)ccc1Cl)c1ccccc1
189 to 190 °C	N#Cc1cccc(OCCc2c[nH]cn2)c1
123 to 124 °C	CCOC(=O)Cc1nc(-c2ccc(F)cc2)c(-c2ccc(S(C)(=O)=O)cc2)o1
156 °C	Cc1cc(-c2ccc(Cl)cc2)cnc1N
204 to 208 °C	O=C(O)COc1cccc2c1CCc1sc(S(=O)(=O)C(c3ccccc3F)c3ccccc3F)nc1-2
158 to 161 °C	Cc1ncoc1CN1CCc2c(c3cccc(F)c3n2C)C1=O
134 °C	CC(C)(C)OC(=O)NCCNC(=O)c1cc(Br)ccn1
129 °C	COc1ccc(COc2cccc(C(=O)O)c2OCc2ccc(OC)cc2)cc1
113 to 114 °C	CC(C)OC(=O)C=CC(=O)NC(N)=O
149 to 151 °C	Cc1oc(-c2ccc3ccccc3c2)nc1COc1ccc(CCCC#N)cc1
359 to 363 °C	O=c1[nH]c2ncc(-c3ccc4cc[nH]c4c3)nc2n1CC1CCCCC1
157 to 160 °C	N#Cc1cc[nH]c1-c1cc2ccccc2o1

melting point	Structure (SMILES)
83 to 84 °C	CC1(C)CC(O)c2cc(OCc3ccccc3)ccc2O1 (stereo unspecified)
159 to 161 °C	COC(=O)C1CCC2C3CCC4CC(O)C(O)CC4(C)C3C(NCCC(C)C)CC12C (stereo unspecified)
134 to 136 °C	CN1N=C2C(=Cc3ccccc3)CN(C(=O)CCCl)CC2C1c1ccccc1 (stereo unspecified)
231 °C	Cc1nc(C(F)(F)F)ccc1/C=C/C(=O)Nc1ccc2[nH]ccc2c1
79 to 81 °C	COC(=O)c1cccc(O)c1O
242 °C	COC(=O)C1=C(C)NC(C)=C(C#N)C1c1cccc2ncc(-c3ccccc3)cc12 (stereo unspecified)
25 to 27 °C	CCOC(=O)CC(=O)CCNC(=O)OCc1ccccc1
168 to 169 °C	Cc1nnc(-c2ccc3occ(C(=O)N4CCOCC4)c3c2)o1
76 to 78 °C	COc1ccc(C(O)c2cccnc2)cc1OC (stereo unspecified)
205 to 207 °C	CCC(=O)Nc1ccc(Cl)c(COc2cccn3c(Br)c(C)nc23)c1Cl
48 to 50 °C	CNc1nc2ccccc2n1CCOS(C)(=O)=O
107 to 112 °C	CN1CCN(c2cccc3ccc(-n4cnc5ncccc54)cc23)CC1
166 to 167 °C	O=C(O)CCc1cn(Cc2ccc(OCc3ccc4ccccc4n3)nc2)nc1-c1ccccc1
264 to 266 °C	COc1ccc(-c2csc(Nc3ncccc3C)n2)cc1OC
167 °C	CC(c1cc(Cl)ccc1O)c1cc(Br)ccc1O (stereo unspecified)
177 to 178 °C	Cc1ccc(-c2ccc3c(c2)CCc2nn(-c4ccccn4)c(O)c2-3)cc1
124 to 127 °C	N#CC(c1ccccc1)c1cn[nH]c1 (racemic)
178 to 180 °C	N#CCCn1[nH]c(C#N)c(N=Nc2ccc(S(=O)(=O)Cl)cc2)c1=O
266 to 272 °C	CCC(c1oc2ccc(F)cc2c(=O)c1-c1ccccc1)n1cnc2c(N)ncnc21 (stereo unspecified)
212 to 213 °C	COc1ncnc2c1C(c1cccc([N+](=O)[O-])c1)C(C(=O)OC(C)C)=C(C)N2 (stereo unspecified)
40 to 41 °C	CC(=O)Cc1ccc(SCCCBr)cc1
142 to 144 °C	CCOC(=O)C(=O)N(c1ccccc1)c1ccc(OC)cc1OC
111 to 112 °C	CC1Nc2ccc(-c3csc(C#N)c3)cc2C2(CCCCC2)O1 (stereo unspecified)
262 °C	Cc1nc2c3c(ccc2n1C)[C@@H](O)[C@H](O)[C@@H](c1ccccc1)O3

Structure (SMILES)	melting point
N#CCCN1C(=O)C(O)(c2cccc(Cl)c2)c2ccccc21 (stereo unspecified)	149 to 150 °C
CCC1CCC2(C)C(=CCC3C4CC(O)C(=O)C4(C)CCC32)C1 (stereo unspecified)	166 to 168 °C
